Laboratory results: patent publication US9944678B2, “Immunomodulators” (BRISTOL-MYERS SQUIBB COMPANY, priority 2014, dated 2018)
Starred links: 1 amine or outer side, 2 acyl side, 3 side chain; linkers in the order of their positions; H or OH if unused. Positions of bridges follow the written chain, without caps; N, C: chain ends. Non-standard residues stand in square brackets, D forms with d. Residues, ends and D or L forms follow the SMILES beside them. ξ: configuration not given here. X5 = NC(=O)CNC(=O)[C@H](CSCC(=O)[*:1])CC(=O)C1(N[*:2])CC1; Bta = N[C@@H](Cc1csc2ccccc12)C(=O)O; Hyp = O=C(O)[C@@H]1C[C@@H](O)CN1; NMeNle = CCCC[C@H](NC)C(=O)O; hLeu = CC(C)CC[C@H](N)C(=O)O; NMeA = CN[C@@H](C)C(=O)O; Dab = NCC[C@H](N)C(=O)O; Dap = NC[C@H](N)C(=O)O; Ac3c = NC1(C(=O)O)CC1; Aib = CC(C)(N)C(=O)O; ξC = NC(CS)C(=O)O; Sar = CNCC(=O)O

Molecular target: T1, PD-1-Ig binding to PD-L1-TVMV-His (PD-L1-His) (Homo sapiens, UniProt Q9NZQ7)
T1 construct: hPDL1(19-239)-TVMV-His; TVMV protease cleavage site (C); made in house; host or cells: HEK293T cells
T1 sequence (Q9NZQ7 with tags, fused parts or gaps): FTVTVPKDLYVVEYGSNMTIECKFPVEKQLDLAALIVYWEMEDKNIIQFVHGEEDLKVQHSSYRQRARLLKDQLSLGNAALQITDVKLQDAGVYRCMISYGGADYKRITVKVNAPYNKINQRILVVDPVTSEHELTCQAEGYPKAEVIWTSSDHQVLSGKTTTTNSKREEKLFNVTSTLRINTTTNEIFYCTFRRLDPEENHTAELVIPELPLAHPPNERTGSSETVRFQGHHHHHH
Assay: PD-1/PD-L1 Homogenous Time-Resolved Fluorescence (HTRF) binding assay
Details: PD-1-Ig/PD-L1-His binding; numeric values
Excerpt: The ability of the macrocyclic peptides of the present disclosure to bind to PD-L1 was investigated using a PD-1/PD-L1 Homogenous Time-Resolved Fluorescence (HTRF) binding assay.
Homogenous Time-Resolved Fluorescence (HTRF) Assays of Binding of Soluble PD-1 to Soluble PD-L1. Soluble PD-1 and soluble PD-L1 refers to proteins with carboxyl-end truncations that remove the transmembrane-spanning regions and are fused to heterologous sequences, specifically the Fc portion of the human immunoglobuling G sequence (Ig) or the hexahistidine epitope tag (His). All binding studies were performed in an HTRF assay buffer consisting of dPBS supplemented with 0.1% (w/v) bovine serum albumin and 0.05% (v/v) Tween-20. For the PD-1-Ig/PD-L1-His binding assay, inhibitors were pre-incubated with PD-L1-His (10 nM final) for 15 m in 4 μl of assay buffer, followed by addition of PD-1-Ig (20 nM final) in 1 μl of assay buffer and further incubation for 15 m. PD-L1 fusion proteins from either human, cynomologous macaques, mouse, or other species were used. HTRF detection was achieved using europium crypate-labeled anti-Ig monoclonal antibody (1 nM final) and allophycocyanin (APC) labeled anti-His monoclonal antibody (20 nM final). Antibodies were diluted in HTRF detection buffer and 5 μl was dispensed on top of binding reaction. The reaction was allowed to equilibrate for 30 minutes and signal (665 nm/620 nm ratio) was obtained using an EnVision fluorometer. Additional binding assays were established between PD-1-Ig/PD-L2-His (20 and 5 nM, respectively), CD80-His/PD-L1-Ig (100 and 10 nM, respectively) and CD80-His/CTLA4-Ig (10 and 5 nM, respectively). Binding/competition studies between biotinylated Compound No. 71 and human PD-L1-His were performed as follows. Macrocyclic peptide inhibitors were pre-incubated with PD-L1-His (10 nM final) for 60 minutes in 4 μl of assay buffer followed by addition of biotinylated Compound No. 71 (0.5 nM final) in 1 μl of assay buffer. Binding was allowed to equilibrate for 30 minutes followed by addition of europium crypated labeled Streptavidin (2.5 pM final) and APC-labeled anti-His (20 nM final) in 5 μl of HTRF buffer. The reaction was allowed to equilibrate for 30 m and signal (665 nm/620 nm ratio) was obtained using an EnVision fluorometer.
Recombinant Proteins. Carboxyl-truncated human PD-1 (amino acids 25-167) with a C-terminal human Ig epitope tag [hPD-1 (25-167)-3S-IG] and human PD-L1 (amino acids 18-239) with a C-terminal His epitope tag [hPD-L1(19-239)-tobacco vein mottling virus protease cleavage site (TVMV)-His] were expressed in HEK293T cells and purified sequentially by recombinant Protein A affinity chromatography and size exclusion chromatography. Human PD-L2-His (Sino Biologicals), CD80-His (Sino Biologicals), CTLA4-Ig (RnD Systems) were all obtained through commercial sources.
Ranges are as follows: A=0.10-10 μM; B=0.01-0.099 μM; C=0.004-0.0099 μM.

IC50 [nM] | SMILES
4.13 | CCCC[C@H]1C(=O)N(C)[C@@H](CCCC)C(=O)N[C@@H](CCCNC(=N)N)C(=O)NC(C(=O)NCC(N)=O)CSCC(=O)N[C@@H](Cc2ccc(O)cc2)C(=O)NC2(CC2)C(=O)N[C@@H](CC(N)=O)C(=O)N2CCC[C@H]2C(=O)N[C@@H](Cc2c[nH]cn2)C(=O)N[C@@H](CC(C)C)C(=O)N2C[C@H](O)C[C@H]2C(=O)N[C@@H](Cc2c[nH]c3ccccc23)C(=O)N[C@@H](CO)C(=O)N[C@@H](Cc2c[nH]c3ccccc23)C(=O)N1C (stereo partly shown) [Example 9002]
40 | CCCC[C@H]1C(=O)N(C)[C@@H](CCCC)C(=O)NC2(CC2)C(=O)N[C@H](C(=O)NCC(N)=O)CSCC(=O)N[C@@H](Cc2ccc(O)cc2)C(=O)N(C)[C@@H](C)C(=O)N[C@@H](CC(N)=O)C(=O)N2CCC[C@H]2C(=O)N[C@@H](CN)C(=O)N[C@@H](CC(C)C)C(=O)N2C[C@H](O)C[C@H]2C(=O)N[C@@H](Cc2c[nH]c3ccccc23)C(=O)N[C@@H](CCN)C(=O)N[C@@H](Cc2c[nH]c3ccccc23)C(=O)N1C [Example 9006] ({CH2CO}-Y[NMeA]NP[Dap]L[Hyp]W[Dab]W[NMeNle][NMeNle][Ac3c]CG-NH2; thioether N-14)
3620 | CCCC[C@H]1C(=O)N(C)[C@@H](CCCC)C(=O)N[C@@H](CC(C)C)C(=O)N[C@H](C(=O)NCC(N)=O)CSCC(=O)N[C@@H](Cc2ccc(O)cc2)C(=O)N(C)[C@@H](C)C(=O)N[C@@H](CC(N)=O)C(=O)N2CCC[C@H]2C(=O)N[C@@H](CN)C(=O)N[C@@H](CC(C)C)C(=O)N2C[C@H](O)C[C@H]2C(=O)N[C@@H](Cc2c[nH]c3ccccc23)C(=O)NC2(CC2)C(=O)N[C@@H](Cc2c[nH]c3ccccc23)C(=O)N1C [Example 9008] ({CH2CO}-Y[NMeA]NP[Dap]L[Hyp]W[Ac3c]W[NMeNle][NMeNle]LCG-NH2; thioether N-14)

Same assay, conditions: PD-1-Ig/PD-L1-His binding; values given as range classes

IC50 [nM] | SMILES
100 to 10000 | CCCC[C@H]1C(=O)N(C)[C@@H](CCCC)C(=O)N[C@@H](CCCNC(=N)N)C(=O)N[C@H](C(=O)NCC(N)=O)CSCC(=O)N[C@@H](Cc2ccccc2)C(=O)N(C)[C@@H](C)C(=O)N[C@@H](CC(N)=O)C(=O)N2CCC[C@H]2C(=O)N[C@@H](Cc2cnc[nH]2)C(=O)N[C@@H](CC(C)C)C(=O)NC2(CCCC2)C(=O)N[C@@H](Cc2c[nH]c3ccccc23)C(=O)N[C@@H](CO)C(=O)N[C@@H](Cc2c[nH]c3ccccc23)C(=O)N1C [Example 1001]
100 to 10000 | CCCC[C@H]1C(=O)N(C)[C@@H](CCCC)C(=O)N[C@@H](CCCNC(=N)N)C(=O)N[C@H](C(=O)NCC(N)=O)CSCC(=O)N[C@@H](Cc2ccccc2)C(=O)N(C)[C@@H](C)C(=O)N[C@@H](CC(N)=O)C(=O)N2CCC[C@H]2C(=O)N[C@@H](Cc2cnc[nH]2)C(=O)N[C@@H](CC(C)C)C(=O)NC(C)(C)C(=O)N[C@@H](Cc2c[nH]c3ccccc23)C(=O)N[C@@H](CO)C(=O)N[C@@H](Cc2c[nH]c3ccccc23)C(=O)N1C [Example 1002]
100 to 10000 | CCCC[C@H]1C(=O)N(C)[C@@H](CCCC)C(=O)N[C@@H](CCCNC(=N)N)C(=O)N[C@H](C(=O)NCC(N)=O)CSCC(=O)N[C@@H](Cc2ccccc2)C(=O)N(C)[C@@H](C)C(=O)N[C@@H](CC(N)=O)C(=O)N2CCC[C@H]2C(=O)N[C@@H](Cc2cnc[nH]2)C(=O)N[C@@H](CC(C)C)C(=O)N(C)CC(=O)N[C@@H](Cc2c[nH]c3ccccc23)C(=O)NC(C)(C)C(=O)N[C@@H](Cc2c[nH]c3ccccc23)C(=O)N1C [Example 1003] ({CH2CO}-F[NMeA]NPHL[Sar]W[Aib]W[NMeNle][NMeNle]RCG-NH2; thioether N-14)
100 to 10000 | CCCC[C@H]1C(=O)N(C)[C@@H](CCCC)C(=O)NC2(CC2)C(=O)C[C@H](C(=O)NCC(N)=O)CSCC(=O)N[C@@H](Cc2ccccc2)C(=O)N(C)[C@@H](C)C(=O)N[C@@H](CC(N)=O)C(=O)N2CCC[C@H]2C(=O)N[C@@H](Cc2c[nH]cn2)C(=O)N[C@@H](CCC(C)C)C(=O)NCC(=O)N[C@@H](Cc2c[nH]c3ccccc23)C(=O)N[C@@H](CO)C(=O)N[C@@H](Cc2c[nH]c3ccccc23)C(=O)N1C [Example 5001] (F[NMeA]NPH[hLeu]GWSW[NMeNle][NMeNle]; linker N-C via X5)
4 to 9.9 | CCCC[C@H]1C(=O)N(C)[C@@H](CCCC)C(=O)N[C@@H](CCCNC(=N)N)C(=O)NC(C(=O)NCC(N)=O)CSCC(=O)N[C@@H](Cc2ccc(O)cc2)C(=O)NC2(CC2)C(=O)N[C@@H](CC(N)=O)C(=O)N2CCC[C@H]2C(=O)N[C@@H](Cc2c[nH]cn2)C(=O)N[C@@H](CC(C)C)C(=O)N2C[C@H](O)C[C@H]2C(=O)N[C@@H](Cc2c[nH]c3ccccc23)C(=O)N[C@@H](CO)C(=O)N[C@@H](Cc2csc3ccccc23)C(=O)N1C (stereo partly shown) [Example 9001] ({CH2CO}-Y[Ac3c]NPHL[Hyp]WS[Bta][NMeNle][NMeNle]R[ξC]G-NH2; thioether N-14)
10 to 99 | CCCC[C@H]1C(=O)N(C)[C@@H](CCCC)C(=O)N[C@@H](CCCNC(=N)N)C(=O)NC(C(=O)NCC(N)=O)CSCC(=O)N[C@@H](Cc2ccc(O)cc2)C(=O)NC(C)(C)C(=O)N[C@@H](CC(N)=O)C(=O)N2CCC[C@H]2C(=O)N[C@@H](Cc2c[nH]cn2)C(=O)N[C@@H](CC(C)C)C(=O)N2C[C@H](O)C[C@H]2C(=O)N[C@@H](Cc2c[nH]c3ccccc23)C(=O)N[C@@H](CO)C(=O)N[C@@H](Cc2csc3ccccc23)C(=O)N1C (stereo partly shown) [Example 9003] ({CH2CO}-Y[Aib]NPHL[Hyp]WS[Bta][NMeNle][NMeNle]R[ξC]G-NH2; thioether N-14)
10 to 99 | CCCC[C@H]1C(=O)N(C)[C@@H](CCCC)C(=O)N[C@@H](CCCNC(=N)N)C(=O)NC(C(=O)NCC(N)=O)CSCC(=O)N[C@@H](Cc2ccc(O)cc2)C(=O)NC(C)(C)C(=O)N[C@@H](CC(N)=O)C(=O)N2CCC[C@H]2C(=O)N[C@@H](Cc2c[nH]cn2)C(=O)N[C@@H](CC(C)C)C(=O)N2C[C@H](O)C[C@H]2C(=O)N[C@@H](Cc2c[nH]c3ccccc23)C(=O)N[C@@H](CO)C(=O)N[C@@H](Cc2c[nH]c3ccccc23)C(=O)N1C (stereo partly shown) [Example 9004]
100 to 10000 | CCCC[C@H]1C(=O)N(C)[C@@H](CCCC)C(=O)NC(C)(C)C(=O)N[C@H](C(=O)NCC(N)=O)CSCC(=O)N[C@@H](Cc2ccc(O)cc2)C(=O)N(C)[C@@H](C)C(=O)N[C@@H](CC(N)=O)C(=O)N2CCC[C@H]2C(=O)N[C@@H](CN)C(=O)N[C@@H](CC(C)C)C(=O)N2C[C@H](O)C[C@H]2C(=O)N[C@@H](Cc2c[nH]c3ccccc23)C(=O)N[C@@H](CCN)C(=O)N[C@@H](Cc2c[nH]c3ccccc23)C(=O)N1C [Example 9005] ({CH2CO}-Y[NMeA]NP[Dap]L[Hyp]W[Dab]W[NMeNle][NMeNle][Aib]CG-NH2; thioether N-14)
100 to 10000 | CCCC[C@H]1C(=O)N(C)[C@@H](CCCC)C(=O)N[C@@H](CC(C)C)C(=O)N[C@H](C(=O)NCC(N)=O)CSCC(=O)N[C@@H](Cc2ccc(O)cc2)C(=O)N(C)[C@@H](C)C(=O)N[C@@H](CC(N)=O)C(=O)N2CCC[C@H]2C(=O)N[C@@H](CN)C(=O)N[C@@H](CC(C)C)C(=O)N2C[C@H](O)C[C@H]2C(=O)N[C@@H](Cc2c[nH]c3ccccc23)C(=O)NC(C)(C)C(=O)N[C@@H](Cc2c[nH]c3ccccc23)C(=O)N1C [Example 9007] ({CH2CO}-Y[NMeA]NP[Dap]L[Hyp]W[Aib]W[NMeNle][NMeNle]LCG-NH2; thioether N-14)
100 to 10000 | CCCC[C@H]1C(=O)N(C)[C@@H](CCCC)C(=O)N[C@@H](CC(C)C)C(=O)N[C@H](C(=O)NCC(N)=O)CSCC(=O)N[C@@H](Cc2ccc(O)cc2)C(=O)N(C)[C@@H](C)C(=O)N[C@@H](CC(N)=O)C(=O)N2CCC[C@H]2C(=O)N[C@@H](CN)C(=O)NC(C)(C)C(=O)N2C[C@H](O)C[C@H]2C(=O)N[C@@H](Cc2c[nH]c3ccccc23)C(=O)N[C@@H](CCN)C(=O)N[C@@H](Cc2c[nH]c3ccccc23)C(=O)N1C [Example 9009] ({CH2CO}-Y[NMeA]NP[Dap][Aib][Hyp]W[Dab]W[NMeNle][NMeNle]LCG-NH2; thioether N-14)
